Results from patent US20260109690A1, “HDAC6 INHIBITORS AND METHOD OF THEIR USE” (Baerenkraft Therapeutics, LLC., priority 2024, published 2026).
Where two headings read alike, the source gives them in different places.

Key:
[1] = Oral bioavailability and brain/CSF uptake study of compound I-8; type: in vivo, male Swiss albino mice
Experimental: Compound I-8 was evaluated for bioavailability, pharmacokinetics and brain/csf to plasma distribution in mouse plasma following oral and intravenous administration of compound I-8 in male Swiss albino mouse.
A total of 24 male Swiss albino mouse were allotted for the study, Animals were allotted to 2 groups containing 12 mice/group, on day of dosing all the animals were fasted 3 hours before dosing. The test formulation was administered as a single dose by intravenous and oral route via tail vein and oral gavage needle at a dose of 1 and 5 mg/kg with a dose volume of 5 and 10 mL/kg, respectively.
Approximately 0.1 mL of blood sample from each animal was collected via retro orbital at predetermined time points (3 animals/timepoint) in pre-labeled Eppendorf tubes containing anticoagulant. After blood collection at 2 h, 4 h and 6 h, CSF and whole brain was withdrawn, and brain tissue was homogenized as a terminal sampling. Blood samples were centrifuged at 10000 rpm for 5 min under refrigeration (2-4° C.) within 0.5 h to obtain plasma. The separated plasma samples were collected in pre labeled tubes within 60 min of separation and stored at −20° C. up to 24 h. Post 24 h sample collection, all plasma samples were transferred to deep freezer custodian to store below or at −70° C. until shipment.
Brain tissues were blotted and dried and then transferred to 15 mL falcon tubes. Initially all tissue samples were stored at −20±3° C. Later all brain tissue samples were homogenized with PBS at 1:4 ratio and the Brain homogenate was transferred to deep freezer (−70±10° C.) and stored until bioanalysis.
Mouse plasma, CSF and Brain homogenate concentrations were analyzed to quantify compound I-8 using a fit-for purpose LC-MS/MS method with LLOQ of 0.98 ng/mL. The PK parameters were evaluated using Phoenix WinNonlin® Ent-Version 8.3 by non-compartmental analysis.

[2] = target: T1, HDAC11 (Homo sapiens, UniProt Q96DB2); test: HDAC selectivity panel: HDAC11; type: biochemical
T1 sequence (Q96DB2 1-347): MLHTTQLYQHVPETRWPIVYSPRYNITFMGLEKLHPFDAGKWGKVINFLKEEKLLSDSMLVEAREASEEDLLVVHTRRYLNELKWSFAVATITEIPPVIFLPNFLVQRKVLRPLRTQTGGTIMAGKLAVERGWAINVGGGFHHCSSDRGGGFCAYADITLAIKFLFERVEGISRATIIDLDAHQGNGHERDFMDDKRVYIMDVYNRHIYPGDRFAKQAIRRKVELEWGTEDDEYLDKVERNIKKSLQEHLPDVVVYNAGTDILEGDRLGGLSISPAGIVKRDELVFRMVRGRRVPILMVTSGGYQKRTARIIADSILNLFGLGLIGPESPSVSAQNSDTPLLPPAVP

[3] = tested on: B6SJL.SOD1-G93A transgenic mouse model of amyotrophic lateral sclerosis; test: ALS mouse model: wire suspension test (inverted screen test); type: in vivo, mice
Experimental: Wire hang test was used to measure the muscle strength of animals. During the test, the animals were placed on the top of a wire lid of a housing cage. Then the lid was inverted and slightly shaken to ensure the grip of animal on the lid. Latency to fall(s) off the lid was recorded. A total of 3 trials were recorded and averaged to analyze the data. A cutoff time of 90 s was used to end the trial.
Note: Behavioral tests were performed once in two weeks, i.e. at week 10, 12, 14 and 16.

[4] = target: T2, HDAC10 (Homo sapiens, UniProt Q969S8); test: HDAC selectivity panel: HDAC10; type: biochemical
T2 sequence (Q969S8 1-669): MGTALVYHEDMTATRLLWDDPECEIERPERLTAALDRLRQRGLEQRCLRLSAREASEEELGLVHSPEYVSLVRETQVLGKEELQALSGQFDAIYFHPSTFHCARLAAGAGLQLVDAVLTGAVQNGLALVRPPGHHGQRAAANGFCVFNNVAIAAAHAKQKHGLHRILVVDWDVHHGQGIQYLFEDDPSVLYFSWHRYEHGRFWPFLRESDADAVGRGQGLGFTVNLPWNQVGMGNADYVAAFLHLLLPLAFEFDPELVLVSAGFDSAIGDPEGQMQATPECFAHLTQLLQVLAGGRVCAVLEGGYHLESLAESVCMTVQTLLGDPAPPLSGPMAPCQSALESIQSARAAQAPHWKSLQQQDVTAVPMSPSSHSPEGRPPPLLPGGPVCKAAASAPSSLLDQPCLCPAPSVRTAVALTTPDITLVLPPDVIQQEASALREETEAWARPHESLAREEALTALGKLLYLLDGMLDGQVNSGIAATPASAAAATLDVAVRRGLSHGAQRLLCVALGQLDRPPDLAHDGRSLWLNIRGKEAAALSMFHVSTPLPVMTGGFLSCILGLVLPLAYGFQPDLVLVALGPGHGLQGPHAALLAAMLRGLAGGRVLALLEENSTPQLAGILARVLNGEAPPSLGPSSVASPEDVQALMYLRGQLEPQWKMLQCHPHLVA

[5] = Mice PK studies of compound I-16; type: in vivo
[6] = male, Swiss albino, mouse, plasma, G1, intravenous 1 mg/kg
[7] = male, Swiss albino, mouse, plasma, G2, oral 5 mg/kg
[8] = male, Swiss albino, G1, intravenous 1 mg/kg, mouse plasma
[9] = male, Swiss albino, G2, oral 5 mg/kg, mouse plasma

For `CC1CN(Cc2ccc(Nc3nccc(-c4ccc(C(=O)NO)cc4)n3)cc2F)CCO1` (racemic) [Compound I-8, 4-(2-((3-fluoro-4-((2-methylmorpholino)methyl)phenyl)amino)pyrimidin-4-yl)-N-hydroxybenzamide], the “Steady state and central compartment volume of distribution” value ([1]; intravenous 1 mg/kg) was “very high”, the clearance ([1]; male, Swiss albino, mouse, plasma, iv, 1 mg/kg, G1, intravenous 1 mg/kg) was ~328 mL/min/kg and the Vd ([1]; male, Swiss albino, mouse, plasma, iv, 1 mg/kg, G1, intravenous 1 mg/kg, read-out: Vd) was 171 L/kg. The Vd ([1]; male, Swiss albino, mouse, plasma, iv, 1 mg/kg, G1, intravenous 1 mg/kg, read-out: Vss) was 188 L/kg, the MRT [1, 6] was 3.28 h and the half-life [1, 6] was 6.03 h. For the same molecule, the MRT [1, 7] was 4.75 h, the Tmax [1, 7] was 8 h and the bioavailability ([1]; male, Swiss albino, mouse, plasma, G2, oral 5 mg/kg vs intravenous 1 mg/kg, read-out: % F (oral bioavailability)) was 53%. For the same molecule, the AUC(0-inf) [1, 8] was 50.8 ng·h/mL, the AUC(0-t) [1, 8] was 27.1 ng·h/mL and the C0 [1, 8] was 27.3 ng/mL. For the same molecule, the AUC(0-t) [1, 9] was 72.3 ng·h/mL, the Cmax [1, 9] was 18.3 ng/mL and the “lag phase in absorption” value ([1]; oral 5 mg/kg) was “no lag phase in absorption”. For the same molecule, the systemic availability ([1]; oral 5 mg/kg) was “moderate to high systemic availability”, the IC50 [2] was 416 nM and the “Wire Suspension test latency to fall” value ([3]; G3 15 mg/kg p.o. QD, Week 10) was 49.70 ± 8.667 s. The “Wire Suspension test latency to fall” value ([3]; G3 15 mg/kg p.o. QD, Week 12) was 37.48 ± 9.92 s, the “Wire Suspension test latency to fall” value ([3]; G3 15 mg/kg p.o. QD, Week 14) was 19.22 ± 7.18 ^ seconds and the “Wire Suspension test latency to fall” value ([3]; G3 15 mg/kg p.o. QD, Week 16) was 3.71 ± 0.73 s. For the same molecule, the “latency to fall of the wire vs. G2” value ([3]; G3 15 mg/kg, week 14) was “significant reduction in latency to fall of the wire”, the “Wire Suspension test latency to fall” value ([3]; G4 30 mg/kg (50 mg/kg from day 34) p.o. QD, Week 10) was 60.38 ± 10.00 s and the “Wire Suspension test latency to fall” value ([3]; G4 30 mg/kg (50 mg/kg from day 34) p.o. QD, Week 12) was 45.46 ± 7.98 s. For the same molecule, the “Wire Suspension test latency to fall” value ([3]; G4 30 mg/kg (50 mg/kg from day 34) p.o. QD, Week 14) was 28.13 ± 5.38 ^ seconds, the “Wire Suspension test latency to fall” value ([3]; G4 30 mg/kg (50 mg/kg from day 34) p.o. QD, Week 16) was 6.46 ± 1.58 s and the “latency to fall of the wire vs. G2” value ([3]; G4, week 14) was “significant reduction in latency to fall of the wire”. It also gave an IC50 [4] of 9.15 nM.

In the case of `C[C@@H]1CN(Cc2ccc(Nc3nccc(-c4ccc(C(=O)NO)cc4)n3)cc2F)CCO1` [Compound I-16, (R)-4-(2-((3-fluoro-4-((2-methylmorpholino)methyl)phenyl)amino)pyrimidin-4-yl)-N-hydroxybenzamide], the “oral and brain uptake” value [5] is reported as “promising oral, and brain up take”.
